# Biological target: T1, p38α (Homo sapiens, UniProt Q16539)
# T1 construct: p38 MAP Kinases are recombinant human full-length proteins with an amino-terminal GST fusion; GST (N); purchased Upstate Biotechnology Inc; host or cells: E. coli
# Test: p38 MAP Kinase assay: inhibition of ATF2 phosphorylation, ELISA
# Format: biochemical
# Settings: for inhibition at 10 µM: substrate ATF2, read-out: [ENZ] P38 ALPHA, PCT INH, ELISA (10 uM;ATF2) (Percent); for IC50: ATF2 phosphorylation, read-out: [ENZ] P38 ALPHA, IC50, ELISA
# Source text: Compounds of the invention are screened for the ability to inhibit ATF2 phosphorylation by p38 MAP Kinase in vitro. The ability of compounds to inhibit ATF2 phosphorylation in this in vitro assay is correlated with the inhibition of p38 MAP Kinase and TNFα expression in vivo, and is therefore an indicator of potential in vivo therapeutic activity (Raingeaud, J., et al, J. Biol. Chem., 270: 7420-7426, 1995, Brinkman, M. N., et al, J. Biol. Chem. 274: 30882-30886, 1999 and Fuchs, S. Y. et al, J. Biol. Chem. 275: 12560-12564, 2000).
# Materials: All kinases and the substrate ATF2 are acquired from Upstate Biotechnology Inc. p38 MAP Kinases are recombinant human full-length proteins with an amino-terminal GST fusion, expressed in and purified from E. coli. ATF2 is a GST fusion protein containing amino acids 19-96 of human ATF2 expressed in E. coli. All proteins are aliquoted and stored at −80° C.
# Methods: p38 MAP Kinase assays are performed using an assay buffer containing 25 mM HEPES, pH 7.5, 10 mM MgCl2, 2 mM DTT, 20 mM β-glycerophosphate, 0.1 mM Na3VO4, 40 μM ATP and 1.25 μM of ATF2 and in the absence or presence of 1% human serum albumin, Method I and II, respectively, with 0.4-6 ng of protein depending on the kinase used. Compounds are serially diluted in DMSO and 2 μL of test compound at 25× final concentration is used. The vehicle control receives DMSO only. Test compounds are pre-incubated with 20 μl of enzyme in kinase buffer (25 mM HEPES, pH 7.5, 10 mM MgCl2, 2 mM DTT, 20 mM β-glycerophosphate, 0.1 mM Na3VO4 in the absence or presence of 1% human serum albumin, Method I and II, respectively) at room temperature for 15 minutes. […] The reactions are incubated for 30 minutes at 37° C. and terminated by the addition of 18 μl of 200 mM EDTA. An ELISA method (I or II) is used to measure the phosphorylation of ATF2 at Thr 69. Method I: 96-well high binding plates (Corning 3369) are coated with 50 μl of kinase reaction for 1 hour at 37° C. The coated plates are washed with 200 μl washing buffer (25 mM Tris HCl, pH 8.3, 192 mM glycine, 0.1% SDS and 0.05% Tween-20) three times. The plates are then washed three times with SuperBlock in TBS (Pierce, 37535). After blocking, plates are incubated with 50 μl of rabbit anti-phospho-ATF2 antibody (Cell Signaling, 9221L, 1:500) for 30 minutes at 37° C. Plates are washed three times with washing buffer prior to incubation with 50 μl HRP-conjugated goat anti-rabbit antibody (Cell Signaling, 7074, 1:500) for 30 minutes at 37° C. Plates are then washed three times with washing buffer before incubation with 50 μl of Ultra TMB-ELISA (Pierce, 34028) for 8 minutes at room temperature. Finally, 50 ul of phosphoric acid (1 M) is added to stop reactions and plate absorbance is read at 450 nm on a SpectraMax 250 plate reader. Method II: 96-well high binding plates (Corning 3369) are coated with 400 ng of monoclonal antibody against GST-tag (Cell signaling) in 100 μl containing sodium borate (pH 8.3) for 90 minutes at 37° C. The plates are washed with 200 μl washing buffer (25 mM Tris HCl, pH 7.2, 150 mM NaCl and Tween-20) three times and blocked with 200 μl of 5% nonfat milk for 30 minutes at room temperature. The plates are washed three times with washing buffer, 50 μl of stopped kinase reaction are added to each well and incubated for 80 minutes at 37° C. The plates are washed three times with 200 μl washing buffer, and the plates are incubated with 50 μl of rabbit anti-phospho-ATF2 antibody (Cell Signaling, 9221L, 1:500) for 30 minutes at 37° C. Plates are washed three times with washing buffer prior to incubation with 50 μl HRP-conjugated goat anti-rabbit antibody (Cell Signaling, 7074, 1:500) for 30 minutes at 37° C. Plates are washed three times with washing buffer before incubation with 50 μl of Ultra TMB-ELISA (Pierce, 34028) for 25 minutes at room temperature. Finally, 50 μl of phosphoric acid (1 M) is added to stop reactions and plate absorbance is read at 450 nm on a SpectraMax 250 plate reader. […]
# T1 sequence (Q16539 whole entry, the tested form may be a part): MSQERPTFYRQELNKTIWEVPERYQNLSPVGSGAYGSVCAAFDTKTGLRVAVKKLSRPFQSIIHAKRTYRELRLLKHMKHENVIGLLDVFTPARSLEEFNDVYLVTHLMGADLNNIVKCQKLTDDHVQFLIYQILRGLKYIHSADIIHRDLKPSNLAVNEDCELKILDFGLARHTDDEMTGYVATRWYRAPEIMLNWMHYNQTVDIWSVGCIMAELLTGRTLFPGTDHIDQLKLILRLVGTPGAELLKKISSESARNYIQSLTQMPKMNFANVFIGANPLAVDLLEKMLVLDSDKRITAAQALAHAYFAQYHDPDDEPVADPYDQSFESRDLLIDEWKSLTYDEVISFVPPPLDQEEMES
Compound,inhibition at 10 µM,IC50
O=C(Nc1ccc(OCCN2CCOCC2)c2ccccc12)c1cccc2c1Cc1ccccc1-2 [Compound B75],27%,> 10 µM
CCC(C)N(C)c1cccc(C(=O)Nc2ccc(OCCN3CCOCC3)c3ccccc23)n1 (centres unmarked) [Compound B149],8.5%,–
O=C(Nc1ccc(OCCN2CCCCC2)c2ccccc12)c1ccc(-n2ccc(C(F)(F)F)n2)cc1 [Compound B10],12.5%,–
O=C(Nc1ccc(OCCN2CCOCC2)c2ccccc12)c1cccc(N2CCC(N3CCCCC3)CC2)n1 [Compound B70],14%,–
O=C(Nc1ccc(OCCN2CCOCC2)c2ccccc12)c1cccc(N2CCC(Cc3ccccc3)CC2)n1 [Compound B140],4%,–
O=C(Nc1ccc(OCCN2CCOCC2)c2ccccc12)c1cccc(-c2ccccc2C(F)(F)F)c1 [Compound B97],31%,> 10 µM
Cc1ccc(-c2cccc(C(=O)Nc3ccc(OCCN4CCOCC4)c4ccccc34)c2)c2ccccc12 [Compound B114],11.3%,–
CC(C)(C)c1ccc(-c2cccc(C(=O)Nc3ccc(OCCN4CCOCC4)c4ccccc34)c2)cc1 [Compound B106],0%,–
O=C(Nc1ccc(OCCN2CCOCC2)c2ccccc12)c1cccc2ccccc12 [Compound B89],29%,–
CC1CC(C)CN(c2cccc(C(=O)Nc3ccc(OCCN4CCOCC4)c4ccccc34)n2)C1 (centres unmarked) [Compound B141],13%,–
O=C(Nc1ccc(OCCN2CCOCC2)c2ccccc12)c1cccc(-c2ccc(Cl)cc2Cl)c1 [Compound B95],58%,1.75 µM
CN(c1cccc(C(=O)Nc2ccc(OCCN3CCOCC3)c3ccccc23)n1)C1CCCCC1 [Compound B137],32%,> 100 µM
O=C(Nc1ccc(OCCN2CCOCC2)c2ccccc12)c1cccc(-c2ccccc2Oc2ccccc2)c1 [Compound B115],10%,–
O=C(Nc1ccc(OCCN2CCOCC2)c2ccccc12)c1cccc(-c2cc(Cl)cc(Cl)c2)c1 [Compound B96],31%,> 100 µM
O=C(Nc1ccc(OCCN2CCOCC2)c2ccccc12)c1cccc(N2CCC(c3ccccc3)CC2)n1 [Compound B72],0%,–
C[C@@H]1CN(CCOc2ccc(NC(=O)c3ccnc(Cl)c3)c3ccccc23)C[C@H](C)O1 [Compound B8],36.5%,–
O=C(Nc1ccc(OCCN2C(=O)c3ccccc3C2=O)c2ccccc12)c1cc(F)cc(N2CCOCC2)c1 [Compound B187],–,> 10 µM

# Other lines, results leading:
inhibition at 10 µM,IC50,Compound
34%,–,O=C(Nc1ccc(OCCN2CCOCC2)c2ccccc12)c1ccnc(N2CCC(CO)CC2)c1 [Compound B131]
0%,–,Cc1cc(C(=O)Nc2ccc(OCCN3CCOCC3)c3ccccc23)cc(N2CCSC2)n1 [Compound B151]
10.5%,–,O=C(Nc1ccc(OCCN2CCOCC2)c2ccccc12)c1ccc(CN2CCS(=O)(=O)CC2)cc1 [Compound B18]
17%,–,CC1CCCN1c1cccc(C(=O)Nc2ccc(OCCN3CCOCC3)c3ccccc23)n1 (centres unmarked) [Compound B144]
18%,–,CCOC(=O)N1CCN(CCOc2ccc(NC(=O)c3cccc(N4CCOCC4)c3)c3ccccc23)CC1 [Compound B15]
20%,–,O=C(Nc1ccc(OCCN2CCOCC2)c2ccccc12)c1cccc(N2CCOCC2)n1 [Compound B134]
21%,> 100 µM,CCc1ccc(-c2cccc(C(=O)Nc3ccc(OCCN4CCOCC4)c4ccccc34)c2)cc1 [Compound B102]
16%,–,O=C(Nc1ccc(OCCN2CCOCC2)c2ccccc12)c1cccc(N2CCC(N3CCCC3)CC2)c1 [Compound B171]
7%,–,O=C(Nc1ccc(OCCN2CCOCC2)c2ccccc12)c1ccnc(N2CCC(Cc3ccccc3)CC2)c1 [Compound B124]
54%,2.74 µM,CSc1ccccc1-c1cccc(C(=O)Nc2ccc(OCCN3CCOCC3)c3ccccc23)c1 [Compound B116]
25%,–,Cc1cccc(N2CCN(c3cccc(C(=O)Nc4ccc(OCCN5CCOCC5)c5ccccc45)c3)CC2)c1 [Compound B172]
